Assay in all cases: competitive isoTOP-ABPP
What all share (type): binding

Test [1] concerns the target T1, ERAP1 Endoplasmic reticulum aminopeptidase 1 (Homo sapiens, UniProt Q9NZ08).
T1 construct: endogenous in cells; host or cells: MDA-MB-231 lysate
As to conditions: 50 uM, in vitro; for R value (DMSO/fragment) for probe 1 labeling: Q9NZ08_K685; for R value (DMSO/fragment) for probe 1 labeling / isoTOP-ABPP reactivity ratio at lysine Q9NZ08_K685: 231 sol. Summed up: (§1)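 Here, isoTOP-ABPP measures loss of STP-alkyne labeling at individual lysines after fragment exposure in lysate. Activated esters are dosed at 50 μM, guanidinylating agents at 100 μM; the probe follows at 0.1 mM for 1 h. R ≥4 marks a liganded lysine.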

Test [2] has as its target T2, XRCC6 X-ray repair cross-complementing protein 6 (Homo sapiens, UniProt P12956).
T2 construct: isoTOP-ABPP experiments performed in cell lysates (in vitro); endogenous in cells; host or cells: soluble proteome of human cancer cell lines (MDA-MB-231; Ramos and Jurkat also prepared)
As to conditions: 50 uM, in vitro; for R value (DMSO/fragment) for probe 1 labeling: P12956_K351; for R value (DMSO/fragment) for probe 1 labeling / isoTOP-ABPP reactivity ratio at lysine P12956_K351: 231 sol. The essentials: as §1

The target in test [3] is T3, NAA25 N-alpha-acetyltransferase 25, NatB auxiliary subunit (Homo sapiens, UniProt Q14CX7).
T3 construct: isoTOP-ABPP experiments performed in cell lysates (in vitro); endogenous in cells; host or cells: soluble proteome of human cancer cell lines (MDA-MB-231; Ramos and Jurkat also prepared)
T3 sequence (Q14CX7 whole entry): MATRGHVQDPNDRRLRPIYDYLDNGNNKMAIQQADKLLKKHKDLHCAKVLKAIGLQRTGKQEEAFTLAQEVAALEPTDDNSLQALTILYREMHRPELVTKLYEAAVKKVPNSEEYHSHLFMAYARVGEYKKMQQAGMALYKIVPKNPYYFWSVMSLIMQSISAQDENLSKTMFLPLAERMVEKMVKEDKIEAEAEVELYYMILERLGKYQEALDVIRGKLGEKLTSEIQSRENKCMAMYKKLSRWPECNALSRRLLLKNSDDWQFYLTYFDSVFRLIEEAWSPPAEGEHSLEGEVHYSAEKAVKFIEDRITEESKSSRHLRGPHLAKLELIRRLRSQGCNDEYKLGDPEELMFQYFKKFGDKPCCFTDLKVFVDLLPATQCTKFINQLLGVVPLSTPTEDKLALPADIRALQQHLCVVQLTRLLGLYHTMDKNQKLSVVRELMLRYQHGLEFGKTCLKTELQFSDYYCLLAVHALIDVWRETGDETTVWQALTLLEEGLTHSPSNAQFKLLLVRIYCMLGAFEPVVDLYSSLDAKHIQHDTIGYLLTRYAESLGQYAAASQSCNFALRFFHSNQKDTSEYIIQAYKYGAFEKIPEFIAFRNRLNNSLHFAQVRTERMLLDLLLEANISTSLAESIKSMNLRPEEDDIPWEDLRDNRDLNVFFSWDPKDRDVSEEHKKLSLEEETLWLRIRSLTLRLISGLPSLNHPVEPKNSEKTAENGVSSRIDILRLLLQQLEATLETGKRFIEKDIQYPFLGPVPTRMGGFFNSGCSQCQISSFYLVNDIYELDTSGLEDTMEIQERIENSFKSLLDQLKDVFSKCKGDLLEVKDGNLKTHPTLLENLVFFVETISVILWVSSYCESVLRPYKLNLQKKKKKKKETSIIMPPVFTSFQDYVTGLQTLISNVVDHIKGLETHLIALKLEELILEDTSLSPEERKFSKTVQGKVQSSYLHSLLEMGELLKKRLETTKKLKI
The conditions noted are these: 50 uM, 231 sol, in vitro. The essentials: as §1

The target in test [4] is T4, DYNC1H1 Cytoplasmic dynein 1 heavy chain 1 (Homo sapiens, UniProt Q14204).
T4 construct: isoTOP-ABPP experiments performed in cell lysates (in vitro); endogenous in cells; host or cells: soluble proteome of human cancer cell lines (MDA-MB-231, Ramos, Jurkat)
The conditions noted are these: 50 uM, 231 sol, in vitro; for R value (DMSO/fragment) for probe 1 labeling: Q14204_K1649. Summed up:
as §1

The target of test [5] is T5, GTPBP3 tRNA modification GTPase GTPBP3, mitochondrial (Homo sapiens, UniProt Q969Y2).
T5 construct: isoTOP-ABPP experiments performed in cell lysates (in vitro); endogenous in cells; host or cells: soluble proteome of human cancer cell lines (MDA-MB-231; Ramos and Jurkat also prepared)
T5 sequence (Q969Y2 21-492): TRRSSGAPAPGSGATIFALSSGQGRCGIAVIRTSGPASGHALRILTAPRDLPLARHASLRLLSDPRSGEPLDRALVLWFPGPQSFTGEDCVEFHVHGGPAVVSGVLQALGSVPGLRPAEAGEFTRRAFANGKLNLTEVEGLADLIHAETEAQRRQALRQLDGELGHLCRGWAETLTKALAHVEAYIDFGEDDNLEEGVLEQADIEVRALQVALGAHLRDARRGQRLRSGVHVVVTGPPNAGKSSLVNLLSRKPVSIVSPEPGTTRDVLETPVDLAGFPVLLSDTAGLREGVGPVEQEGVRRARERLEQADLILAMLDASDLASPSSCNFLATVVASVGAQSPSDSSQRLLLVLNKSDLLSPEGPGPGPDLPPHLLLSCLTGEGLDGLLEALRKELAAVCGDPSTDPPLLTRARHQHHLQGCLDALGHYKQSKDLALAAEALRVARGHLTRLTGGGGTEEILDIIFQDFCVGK
The conditions noted are these: 50 uM, in vitro; for isoTOP-ABPP reactivity ratio at lysine Q969Y2_K492: 231 sol. The essentials:
as §1

This note sets out measurements from patent publication US20210255193A1, “LYSINE REACTIVE PROBES AND USES THEREOF” (The Scripps Research Institute, priority 2017, published 2021).

T1 sequence (Q9NZ08 whole entry): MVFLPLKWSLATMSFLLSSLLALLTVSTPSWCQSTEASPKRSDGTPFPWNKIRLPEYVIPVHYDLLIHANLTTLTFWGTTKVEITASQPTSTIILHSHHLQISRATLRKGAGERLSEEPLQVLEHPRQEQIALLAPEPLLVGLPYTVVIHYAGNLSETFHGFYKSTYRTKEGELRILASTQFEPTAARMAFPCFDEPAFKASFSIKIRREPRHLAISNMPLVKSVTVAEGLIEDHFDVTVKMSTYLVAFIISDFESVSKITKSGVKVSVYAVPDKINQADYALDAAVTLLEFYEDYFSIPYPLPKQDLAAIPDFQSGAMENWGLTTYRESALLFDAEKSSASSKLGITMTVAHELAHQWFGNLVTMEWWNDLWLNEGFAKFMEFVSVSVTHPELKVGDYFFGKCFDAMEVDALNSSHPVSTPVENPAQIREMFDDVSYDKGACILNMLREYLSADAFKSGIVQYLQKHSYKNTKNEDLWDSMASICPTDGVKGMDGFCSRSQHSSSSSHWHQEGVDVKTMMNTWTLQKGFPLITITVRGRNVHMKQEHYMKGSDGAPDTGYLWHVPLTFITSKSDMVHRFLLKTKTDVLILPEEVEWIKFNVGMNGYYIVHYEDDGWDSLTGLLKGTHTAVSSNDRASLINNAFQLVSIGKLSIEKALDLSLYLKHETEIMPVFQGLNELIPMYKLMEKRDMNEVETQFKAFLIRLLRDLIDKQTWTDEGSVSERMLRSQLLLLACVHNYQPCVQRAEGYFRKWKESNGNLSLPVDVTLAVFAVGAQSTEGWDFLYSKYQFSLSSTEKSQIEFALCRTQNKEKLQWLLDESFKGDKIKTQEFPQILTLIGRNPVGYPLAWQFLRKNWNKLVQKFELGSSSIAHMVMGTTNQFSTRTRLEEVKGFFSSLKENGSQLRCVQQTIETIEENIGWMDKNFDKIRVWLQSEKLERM
T2 sequence (P12956 2-609 limits assumed): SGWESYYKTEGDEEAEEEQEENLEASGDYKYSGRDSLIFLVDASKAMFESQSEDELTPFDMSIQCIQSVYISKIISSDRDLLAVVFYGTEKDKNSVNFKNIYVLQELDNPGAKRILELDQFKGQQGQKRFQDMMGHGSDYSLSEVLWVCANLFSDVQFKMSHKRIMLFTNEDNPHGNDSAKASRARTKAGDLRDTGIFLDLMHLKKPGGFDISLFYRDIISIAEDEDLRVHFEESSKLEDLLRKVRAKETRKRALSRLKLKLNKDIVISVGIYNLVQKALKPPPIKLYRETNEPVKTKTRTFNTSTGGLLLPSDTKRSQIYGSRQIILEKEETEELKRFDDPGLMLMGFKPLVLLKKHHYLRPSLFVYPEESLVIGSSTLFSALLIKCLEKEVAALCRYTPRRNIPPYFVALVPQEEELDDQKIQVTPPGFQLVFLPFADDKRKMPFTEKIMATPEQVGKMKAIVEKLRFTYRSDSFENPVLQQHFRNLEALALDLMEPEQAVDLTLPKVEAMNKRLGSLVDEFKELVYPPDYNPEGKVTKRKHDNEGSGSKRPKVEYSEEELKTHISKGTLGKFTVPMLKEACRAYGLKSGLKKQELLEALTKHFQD
T2 sequence (P13010 2-732 partner limits assumed): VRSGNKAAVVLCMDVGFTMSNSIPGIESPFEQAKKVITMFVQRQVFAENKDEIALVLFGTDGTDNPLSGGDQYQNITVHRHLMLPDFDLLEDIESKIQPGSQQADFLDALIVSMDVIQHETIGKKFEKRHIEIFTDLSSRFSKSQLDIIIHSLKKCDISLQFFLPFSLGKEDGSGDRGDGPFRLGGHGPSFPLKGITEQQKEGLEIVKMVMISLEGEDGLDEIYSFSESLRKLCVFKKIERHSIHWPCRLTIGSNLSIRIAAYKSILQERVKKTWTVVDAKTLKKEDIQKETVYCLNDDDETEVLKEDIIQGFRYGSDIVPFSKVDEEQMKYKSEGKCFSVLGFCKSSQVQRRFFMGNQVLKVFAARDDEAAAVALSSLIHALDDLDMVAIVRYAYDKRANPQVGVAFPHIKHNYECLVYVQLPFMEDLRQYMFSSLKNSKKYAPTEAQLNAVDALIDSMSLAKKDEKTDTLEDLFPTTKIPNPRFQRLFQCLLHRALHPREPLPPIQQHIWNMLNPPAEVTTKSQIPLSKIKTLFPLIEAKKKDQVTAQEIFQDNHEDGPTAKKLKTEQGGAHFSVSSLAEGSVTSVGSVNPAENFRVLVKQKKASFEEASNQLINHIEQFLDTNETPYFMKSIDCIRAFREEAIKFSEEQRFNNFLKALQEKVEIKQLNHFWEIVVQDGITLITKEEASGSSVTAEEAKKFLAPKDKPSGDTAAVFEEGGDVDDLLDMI

On to `O=C(CCc1cn(-c2ccccc2)nc1-c1ccccc1)Oc1c(F)c(F)c(F)c(F)c1F` [fragment 19, Pentafluorophenyl 3-(1,3-diphenyl-1H-pyrazol-4-yl)propanoate], for which the “R value (DMSO/fragment) for probe 1 labeling” value worked out at 1.1 in test [1], 1.7 in test [2], 1.0 in test [3] (Q14CX7_K575) and 1.0 in test [4].

For the compound `COc1cc(CCC(=O)Oc2c(F)c(F)c(F)c(F)c2F)cc(OC)c1OC` [fragment 23, Pentafluorophenyl 3-(3,4,5-trimethoxyphenyl)propanoate], the “R value (DMSO/fragment) for probe 1 labeling” value turned out to be 1.7 in test [1], 1.2 in test [2] and 1.7 in test [4].

On to `O=C(Oc1c(F)c(F)c(F)c(F)c1F)C1CCN(C(=O)OCc2ccccc2)CC1` [fragment 24, 1-Benzyl 4-(pentafluorophenyl) piperidine-1,4-dicarboxylate], for which the “isoTOP-ABPP reactivity ratio at lysine Q9NZ08_K685” value in test [1] worked out at 1.6. Besides, the “isoTOP-ABPP reactivity ratio at lysine P12956_K351” value in test [2] is 1.3. In test [3], the “isoTOP-ABPP reactivity ratio at lysine Q14CX7_K575” value was found to be 1.1. The “isoTOP-ABPP reactivity ratio at lysine Q14204_K1649” value in test [4] came out at 1.3.

Regarding `O=C(Oc1c(F)c(F)c(F)c(F)c1F)c1ccc2ccccc2n1` [fragment 25, Pentafluorophenyl quinoline-2-carboxylate], in test [1], the “isoTOP-ABPP reactivity ratio at lysine Q9NZ08_K685” value stood at 1.9. Also, the “isoTOP-ABPP reactivity ratio at lysine P12956_K351” value in test [2] is 1.6. In test [3], the “isoTOP-ABPP reactivity ratio at lysine Q14CX7_K575” value was found to be 0.9. The “isoTOP-ABPP reactivity ratio at lysine Q14204_K1649” value in test [4] worked out at 1.7.

On to `O=C(CCc1coc2cc(F)ccc2c1=O)Oc1c(F)c(F)c(F)c(F)c1F` [fragment 26, Pentafluorophenyl 3-(7-fluoro-4-oxo-4H-chromen-3-yl)propanoate], for which, in test [5], the “isoTOP-ABPP reactivity ratio at lysine Q969Y2_K492” value came to 5.0. Moreover, the “isoTOP-ABPP reactivity ratio at lysine Q9NZ08_K685” value in test [1] stood at 1.2. Moreover, in test [2], the “isoTOP-ABPP reactivity ratio at lysine P12956_K351” value is on record as 2.1. Moreover, in test [3], the “isoTOP-ABPP reactivity ratio at lysine Q14CX7_K575” value is listed as 0.9.

Turning to `CCn1cc(C(=O)Oc2c(F)c(F)c(F)c(F)c2F)c(=O)c2ccc(C)nc21` [fragment 28, Pentafluorophenyl 1-ethyl-7-methyl-4-oxo-1,4-dihydro-1,8-naphthyridine-3-carboxylate], in test [1], the “isoTOP-ABPP reactivity ratio at lysine Q9NZ08_K685” value is reported as 1.4. In test [2], the “isoTOP-ABPP reactivity ratio at lysine P12956_K351” value is 1.9. Besides, the “isoTOP-ABPP reactivity ratio at lysine Q14CX7_K575” value in test [3] was determined as 0.8. In addition, the “isoTOP-ABPP reactivity ratio at lysine Q14204_K1649” value in test [4] came to 1.0.

Take `O=C(Oc1ccc([N+](=O)[O-])cc1[N+](=O)[O-])C(c1ccccc1)c1ccccc1` [fragment 30, 2,4-Dinitrophenyl 2,2-diphenylacetate]: the “isoTOP-ABPP reactivity ratio at lysine Q969Y2_K492” value in test [5] is given as 1.5. For the same compound, the “isoTOP-ABPP reactivity ratio at lysine Q9NZ08_K685” value in test [1] stood at 1.2. Besides, in test [2], the “isoTOP-ABPP reactivity ratio at lysine P12956_K351” value is given as 20.0. The “isoTOP-ABPP reactivity ratio at lysine Q14CX7_K575” value in test [3] stood at 4.7.

As to `O=C(Oc1ccc([N+](=O)[O-])cc1[N+](=O)[O-])c1cc(C(F)(F)F)cc(C(F)(F)F)c1` [fragment 31, 2,4-Dinitrophenyl 3,5-bis(trifluoromethyl)benzoate], in test [5], the “isoTOP-ABPP reactivity ratio at lysine Q969Y2_K492” value was 1.4. In addition, the “isoTOP-ABPP reactivity ratio at lysine Q9NZ08_K685” value in test [1] came out at 1.6. In addition, the “isoTOP-ABPP reactivity ratio at lysine P12956_K351” value in test [2] stood at 2.6. The “isoTOP-ABPP reactivity ratio at lysine Q14CX7_K575” value in test [3] is 1.2.

For `COc1cc(CCC(=O)Oc2ccc([N+](=O)[O-])cc2[N+](=O)[O-])cc(OC)c1OC` [fragment 33, 2,4-Dinitrophenyl 3-(3,4,5-trimethoxyphenyl)propanoate], the “isoTOP-ABPP reactivity ratio at lysine Q9NZ08_K685” value in test [1] was 1.0. In addition, the “isoTOP-ABPP reactivity ratio at lysine P12956_K351” value in test [2] was 2.5. Besides, the “isoTOP-ABPP reactivity ratio at lysine Q14CX7_K575” value in test [3] turned out to be 1.1. In test [4], the “isoTOP-ABPP reactivity ratio at lysine Q14204_K1649” value was 1.1.

On to `O=C(Oc1ccc([N+](=O)[O-])cc1[N+](=O)[O-])C1CCN(C(=O)OCc2ccccc2)CC1` [fragment 34, 1-Benzyl 4-(2,4-dinitrophenyl) piperidine-1,4-dicarboxylate], for which, in test [5] (sol, 231), the “isoTOP-ABPP ratio (R) at liganded lysine Q969Y2_K492” value was found to be 1.6. The “isoTOP-ABPP ratio (R) at liganded lysine Q9NZ08_K685” value in test [1] (sol, 231) was 1.7. Moreover, the “isoTOP-ABPP ratio (R) at liganded lysine P12956_K351” value in test [2] (sol, 231) amounted to 1.6.
